Source: ChEMBL document CHEMBL1201862, “PubChem BioAssay data set” (2004)
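Compound exposure: 48 hours, 5 concentrations, 96-well plates. GI50 is the concentration that inhibits growth by half.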 Active and inactive are the calls of the source. Cut-off read from the data, not from the text of the source: active = GI50 up to about 1.1 µM and inactive = higher.

Tests used:
Test in all cases: growth of human tumour cells (NCI), 48 h
786-0 = test system: 786-0
A498 = test system: A498
A549 = test system: A549
ACHN = test system: ACHN
BT-549 = test system: BT-549
CAKI-1 = test system: CAKI-1
COLO 205 = test system: COLO 205
DU-145 = test system: DU-145
EKVX = test system: EKVX
HCT-116 = test system: HCT-116
HCT-15 = test system: HCT-15
HOP-62 = test system: HOP-62
HOP-92 = test system: HOP-92
HT-29 = test system: HT-29
Hs-578T = test system: Hs-578T
IGROV-1 = test system: IGROV-1
K562 = test system: K562
KM12 = test system: KM12
LOX IMVI = test system: LOX IMVI
M14 = test system: M14
MCF7 = test system: MCF7
MDA-MB-231 = test system: MDA-MB-231
MDA-MB-435 = test system: MDA-MB-435
MDA-N = test system: MDA-N
MOLT-4 = test system: MOLT-4
Malme-3M = test system: Malme-3M
NCI-H226 = test system: NCI-H226
NCI-H23 = test system: NCI-H23
NCI-H460 = test system: NCI-H460
NCI-H522 = test system: NCI-H522
NCI/ADR-RES = test system: NCI/ADR-RES
OVCAR-3 = test system: OVCAR-3
OVCAR-4 = test system: OVCAR-4
OVCAR-5 = test system: OVCAR-5
OVCAR-8 = test system: OVCAR-8
PC-3 = test system: PC-3
RPMI-8226 = test system: RPMI-8226
RXF 393 = test system: RXF 393
SF-268 = test system: SF-268
SF-295 = test system: SF-295
SF-539 = test system: SF-539
SK-MEL-28 = test system: SK-MEL-28
SK-MEL-2 = test system: SK-MEL-2
SK-MEL-5 = test system: SK-MEL-5
SK-OV-3 = test system: SK-OV-3
SN12C = test system: SN12C
SNB-19 = test system: SNB-19
SNB-75 = test system: SNB-75
SR = test system: SR
SW-620 = test system: SW-620
T47D = test system: T47D
TK-10 = test system: TK-10
U-251 = test system: U-251
UACC-257 = test system: UACC-257
UACC-62 = test system: UACC-62
UO-31 = test system: UO-31
CCRF-CEM = test system: CCRF-CEM
HCC 2998 = test system: HCC 2998
HL-60 = test system: HL-60

O=C(O)[C@@H]1[C@H](C(=O)O)[C@H](C(=O)O)C[C@@H]1C(=O)O
GI50 (786-0): > 100 µM (inactive)
GI50 (A498): > 100 µM (inactive)
GI50 (A549): > 100 µM (inactive)
GI50 (ACHN): > 100 µM (inactive)
GI50 (BT-549): > 100 µM (inactive)
GI50 (CAKI-1): > 100 µM (inactive)
GI50 (COLO 205): > 100 µM (inactive)
GI50 (DU-145): > 100 µM (inactive)
GI50 (EKVX): > 100 µM (inactive)
GI50 (HCT-116): > 100 µM (inactive)
GI50 (HCT-15): > 100 µM
GI50 (HOP-62): > 100 µM (inactive)
GI50 (HOP-92): > 100 µM (inactive)
GI50 (HT-29): > 100 µM (inactive)
GI50 (Hs-578T): > 100 µM (inactive)
GI50 (IGROV-1): > 100 µM (inactive)
GI50 (K562): > 100 µM (inactive)
GI50 (KM12): > 100 µM (inactive)
GI50 (LOX IMVI): > 100 µM (inactive)
GI50 (M14): > 100 µM (inactive)
GI50 (MCF7): > 100 µM (inactive)
GI50 (MDA-MB-231): > 100 µM (inactive)
GI50 (MDA-MB-435): > 100 µM (inactive)
GI50 (MDA-N): > 100 µM (inactive)
GI50 (MOLT-4): > 100 µM (inactive)
GI50 (Malme-3M): > 100 µM (inactive)
GI50 (NCI-H226): > 100 µM (inactive)
GI50 (NCI-H23): > 100 µM (inactive)
GI50 (NCI-H460): > 100 µM (inactive)
GI50 (NCI-H522): > 100 µM (inactive)
GI50 (NCI/ADR-RES): > 100 µM (inactive)
GI50 (OVCAR-3): > 100 µM (inactive)
GI50 (OVCAR-4): > 100 µM (inactive)
GI50 (OVCAR-5): > 100 µM (inactive)
GI50 (OVCAR-8): > 100 µM (inactive)
GI50 (PC-3): > 100 µM (inactive)
GI50 (RPMI-8226): > 100 µM (inactive)
GI50 (RXF 393): > 100 µM (inactive)
GI50 (SF-268): > 100 µM (inactive)
GI50 (SF-295): > 100 µM (inactive)
GI50 (SF-539): > 100 µM (inactive)
GI50 (SK-MEL-28): > 100 µM (inactive)
GI50 (SK-MEL-2): > 100 µM (inactive)
GI50 (SK-MEL-5): > 100 µM (inactive)
GI50 (SK-OV-3): > 100 µM (inactive)
GI50 (SN12C): > 100 µM (inactive)
GI50 (SNB-19): > 100 µM (inactive)
GI50 (SNB-75): > 100 µM (inactive)
GI50 (SR): > 100 µM (inactive)
GI50 (SW-620): > 100 µM (inactive)
GI50 (T47D): > 100 µM (inactive)
GI50 (TK-10): > 100 µM (inactive)
GI50 (U-251): > 100 µM (inactive)
GI50 (UACC-257): > 100 µM (inactive)
GI50 (UACC-62): > 100 µM (inactive)
GI50 (UO-31): > 100 µM (inactive)

CSc1c(C#N)c(N)n(-c2ccc(C)cc2)c(=O)c1C#N
GI50 (786-0): > 100 µM (inactive)
GI50 (A498): 50.8 µM (inactive)
GI50 (A549): > 100 µM (inactive)
GI50 (BT-549): > 100 µM (inactive)
GI50 (CAKI-1): > 100 µM (inactive)
GI50 (CCRF-CEM): 94.8 µM (inactive)
GI50 (COLO 205): > 100 µM (inactive)
GI50 (DU-145): > 100 µM (inactive)
GI50 (EKVX): > 100 µM (inactive)
GI50 (HCC 2998): > 100 µM (inactive)
GI50 (HCT-116): > 100 µM (inactive)
GI50 (HCT-15): > 100 µM
GI50 (HL-60): > 100 µM (inactive)
GI50 (HT-29): > 100 µM (inactive)
GI50 (Hs-578T): > 100 µM (inactive)
GI50 (IGROV-1): > 100 µM (inactive)
GI50 (K562): > 100 µM (inactive)
GI50 (KM12): > 100 µM (inactive)
GI50 (LOX IMVI): 88.9 µM (inactive)
GI50 (M14): > 100 µM (inactive)
GI50 (MCF7): > 100 µM (inactive)
GI50 (MDA-MB-231): > 100 µM (inactive)
GI50 (MDA-MB-435): > 100 µM (inactive)
GI50 (MDA-N): > 100 µM (inactive)
GI50 (MOLT-4): > 100 µM (inactive)
GI50 (Malme-3M): > 100 µM (inactive)
GI50 (NCI-H226): 70 µM (inactive)
GI50 (NCI-H23): > 100 µM (inactive)
GI50 (NCI-H460): > 100 µM (inactive)
GI50 (NCI-H522): 98.9 µM (inactive)
GI50 (NCI/ADR-RES): > 100 µM (inactive)
GI50 (OVCAR-3): > 100 µM (inactive)
GI50 (OVCAR-4): > 100 µM (inactive)
GI50 (OVCAR-5): > 100 µM (inactive)
GI50 (OVCAR-8): > 100 µM (inactive)
GI50 (PC-3): > 100 µM (inactive)
GI50 (RPMI-8226): > 100 µM (inactive)
GI50 (RXF 393): > 100 µM (inactive)
GI50 (SF-268): > 100 µM (inactive)
GI50 (SF-539): > 100 µM (inactive)
GI50 (SK-MEL-28): > 100 µM (inactive)
GI50 (SK-MEL-2): > 100 µM (inactive)
GI50 (SK-MEL-5): > 100 µM (inactive)
GI50 (SK-OV-3): > 100 µM (inactive)
GI50 (SN12C): > 100 µM (inactive)
GI50 (SNB-19): > 100 µM (inactive)
GI50 (SNB-75): > 100 µM (inactive)
GI50 (SR): > 100 µM (inactive)
GI50 (SW-620): > 100 µM (inactive)
GI50 (T47D): > 100 µM (inactive)
GI50 (TK-10): > 100 µM (inactive)
GI50 (U-251): > 100 µM (inactive)
GI50 (UACC-257): > 100 µM (inactive)
GI50 (UACC-62): > 100 µM (inactive)
GI50 (UO-31): 50.4 µM (inactive)
